Columns and labels:
[1] = biological target: T1, UT receptors in HSMM (Human Skeletal Muscle Myoblasts) (Homo sapiens, UniProt Q9UKP6); test: Human Radioligand Binding Assay ((^125I)-U-II binding to intact HSMM)
T1 sequence (Q9UKP6 1-389): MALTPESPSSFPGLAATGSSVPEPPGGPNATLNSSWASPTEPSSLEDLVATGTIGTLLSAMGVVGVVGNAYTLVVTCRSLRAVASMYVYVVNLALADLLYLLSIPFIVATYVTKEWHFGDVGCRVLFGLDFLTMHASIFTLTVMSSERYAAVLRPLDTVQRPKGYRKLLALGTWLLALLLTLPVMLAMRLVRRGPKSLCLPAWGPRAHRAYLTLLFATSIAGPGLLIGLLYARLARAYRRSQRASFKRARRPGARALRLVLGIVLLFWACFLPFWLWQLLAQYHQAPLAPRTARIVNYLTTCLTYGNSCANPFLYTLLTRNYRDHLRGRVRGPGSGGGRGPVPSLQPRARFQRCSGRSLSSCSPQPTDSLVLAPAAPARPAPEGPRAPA

[2] = biological target: T2, Human UII (U-II receptor) in 6D9 human rhabdomyosarcoma cells (Homo sapiens, UniProt Q9UKP6); test: Human UII Calcium Mobilization Assay; type: cell-based; details: 6D9 human rhabdomyosarcoma cells, FLIPR TETRA, average; read-out: Human UII Ca+ Mobilization Average IC50
T2 construct: 6D9: isolated by dilution subcloning of RMS13 cells, ATCC® Number: CRL-2061; host or cells: 6D9 human rhabdomyosarcoma cells (subclone of RMS13)
T2 sequence (Q9UKP6 1-389): T1 sequence (Q9UKP6 1-389)

[3] = biological target: T3, rat GPR14 (U-II receptor) (Rattus norvegicus, UniProt P49684); test: Rat UII Calcium Mobilization FLIPR Assay; type: cell-based; details: CHO cells transfected with rat GPR14; antagonist activity after 5 min incubation vs agonist (Ac)-CFWK(2-NaI)C-NH2 at 1 nM
T3 construct: expressed in transfected cells
T3 sequence (P49684 1-386): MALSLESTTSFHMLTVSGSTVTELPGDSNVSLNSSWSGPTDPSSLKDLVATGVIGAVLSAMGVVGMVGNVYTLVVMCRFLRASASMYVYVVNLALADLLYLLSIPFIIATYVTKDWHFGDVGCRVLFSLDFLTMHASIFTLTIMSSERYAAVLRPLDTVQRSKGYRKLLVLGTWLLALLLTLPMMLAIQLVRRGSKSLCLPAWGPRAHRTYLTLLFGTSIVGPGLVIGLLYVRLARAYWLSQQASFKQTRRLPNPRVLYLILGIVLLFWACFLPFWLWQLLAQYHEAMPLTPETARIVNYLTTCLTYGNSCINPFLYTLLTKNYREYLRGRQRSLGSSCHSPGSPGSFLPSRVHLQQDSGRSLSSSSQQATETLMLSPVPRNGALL
Summary of the method: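 CHO cells stably expressing rat U-II receptor, seeded 24 h before assay, were loaded with FLIPR calcium dye in HBSS/20 mM HEPES/0.1% BSA/2.5 mM probenecid, pH 7.4, for 1 h at 37° C. Calcium mobilization then read by FLIPR at 23° C.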

CCN1CCN(c2cccc3c2CN([C@H](CCCN(C)Cc2ccc(F)cc2)c2ccc(OC)c(OC)c2)C3=O)CC1 [Cpd 99, 2-{(1R)-1-(3,4-dimethoxy-phenyl)-4-[(4-fluoro-benzyl)-methyl-amino]-butyl}-4-(4-ethyl-piperazin-1-yl)-2,3-dihydro-isoindol-1-one]
Ki [1]: 47 nM | IC50 [2]: 238 nM | IC50 [3]: 4 nM

CCN1CCN(c2cccc3c2CN([C@H](CCCN(C)Cc2cccs2)c2ccc(OC)c(OC)c2)C3=O)CC1 [Cpd 95, 2-[(1R)-1-(3,4-dimethoxy-phenyl)-4-(methyl-thiophen-2-ylmethyl-amino)-butyl]-4-(4-ethyl-piperazin-1-yl)-2,3-dihydro-isoindol-1-one]
Ki [1]: 23 nM | IC50 [2]: 92 nM | IC50 [3]: 5 nM

COc1ccc([C@@H](CCCSc2ccccc2)N2Cc3c(cccc3N3CCNCC3)C2=O)cc1OC [Cpd 36, 2-[(1R)-1-(3,4-dimethoxy-phenyl)-4-phenylsulfanyl-butyl]-4-piperazin-1-yl-2,3-dihydro-isoindol-1-one]
Ki [1]: 122 nM | IC50 [2]: 1150 nM | IC50 [3]: 19 nM

CCN1CCN(c2cccc3c2CN([C@H](CCCN2CCc4ccccc4C2)c2ccc(OC)c(OC)c2)C3=O)CC1 [Cpd 101, 2-[(1R)-4-(3,4-dihydro-1H-isoquinolin-2-yl)-1-(3,4-dimethoxy-phenyl)-butyl]-4-(4-ethyl-piperazin-1-yl)-2,3-dihydro-isoindol-1-one]
Ki [1]: 21 nM | IC50 [2]: 69 nM | IC50 [3]: 5 nM

CCN1CCN(c2cccc3c2CN([C@H](CCCn2cnnn2)c2ccc(OC)c(OC)c2)C3=O)CC1 [Cpd 14, 2-[(1R)-1-(3,4-dimethoxy-phenyl)-4-tetrazol-1-yl-butyl]-4-(4-ethyl-piperazin-1-yl)-2,3-dihydro-isoindol-1-one]
Ki [1]: 129 nM | IC50 [2]: 1390 nM | IC50 [3]: 31 nM

CCN1CCN(c2cccc3c2CN([C@H](CCCNC(=O)c2nccn2C)c2ccc(OC)c(OC)c2)C3=O)CC1 [Cpd 56, 1-methyl-1H-imidazole-2-carboxylic acid {(4R)-4-(3,4-dimethoxy-phenyl)-4-[4-(4-ethyl-piperazin-1-yl)-1-oxo-1,3-dihydro-isoindol-2-yl]-butyl}-amide]
Ki [1]: 125 nM | IC50 [2]: 699 nM | IC50 [3]: 79 nM

CCc1ccnc(NCCC[C@H](c2ccc(OC)c(OC)c2)N2Cc3c(cccc3N3CCN(CC)CC3)C2=O)n1 [Cpd 20, 2-[(1R)-1-(3,4-dimethoxy-phenyl)-4-(4-ethyl-pyrimidin-2-ylamino)-butyl]-4-(4-ethyl-piperazin-1-yl)-2,3-dihydro-isoindol-1-one]
Ki [1]: 48 nM | IC50 [2]: 491 nM | IC50 [3]: 34 nM

CC[N+]1(C)CCN(c2cccc3c2CN([C@H](CCCN(Cc2ccccc2)Cc2ccccc2)c2ccc(OC)c(OC)c2)C3=O)CC1 [Cpd 38, 4-{2-[(1R)-4-dibenzylamino-1-(3,4-dimethoxy-phenyl)-butyl]-1-oxo-2,3-dihydro-1H-isoindol-4-yl}-1-ethyl-1-methyl-piperazin-1-ium]
Ki [1]: > 300 nM | IC50 [2]: 2850 nM | IC50 [3]: 185 nM

CCN1CCN(c2cccc3c2CN([C@H](CCCNC(=O)c2ccco2)c2ccc(OC)c(OC)c2)C3=O)CC1 [Cpd 78, furan-2-carboxylic acid {(4R)-4-(3,4-dimethoxy-phenyl)-4-[4-(4-ethyl-piperazin-1-yl)-1-oxo-1,3-dihydro-isoindol-2-yl]-butyl}-amide]
Ki [1]: 20 nM | IC50 [2]: 394 nM | IC50 [3]: 15 nM

CCN1CCN(c2cccc3c2CN([C@H](CCCNC(=O)Nc2ccccc2)c2ccc(OC)c(OC)c2)C3=O)CC1 [Cpd 66, 1-{(4R)-4-(3,4-dimethoxy-phenyl)-4-[4-(4-ethyl-piperazin-1-yl)-1-oxo-1,3-dihydro-isoindol-2-yl]-butyl}-3-phenyl-urea]
Ki [1]: 84 nM | IC50 [2]: 842 nM | IC50 [3]: 23 nM

Source: patent publication US8008299B2, “Urotensin II receptor antagonists” (Janssen Pharmaceutica, N.V., priority 2007, dated 2011)
